Laboratory results published in PMC2631625 (Bioorganic & medicinal chemistry letters, 2008).

target: CB1 receptors (Rattus norvegicus, UniProt P20272); test: Inhibition of [3H]SR141716 binding in homogenates of rat cerebellum; details: [3H]SR141716 radioligand
Sequence (P20272 whole entry): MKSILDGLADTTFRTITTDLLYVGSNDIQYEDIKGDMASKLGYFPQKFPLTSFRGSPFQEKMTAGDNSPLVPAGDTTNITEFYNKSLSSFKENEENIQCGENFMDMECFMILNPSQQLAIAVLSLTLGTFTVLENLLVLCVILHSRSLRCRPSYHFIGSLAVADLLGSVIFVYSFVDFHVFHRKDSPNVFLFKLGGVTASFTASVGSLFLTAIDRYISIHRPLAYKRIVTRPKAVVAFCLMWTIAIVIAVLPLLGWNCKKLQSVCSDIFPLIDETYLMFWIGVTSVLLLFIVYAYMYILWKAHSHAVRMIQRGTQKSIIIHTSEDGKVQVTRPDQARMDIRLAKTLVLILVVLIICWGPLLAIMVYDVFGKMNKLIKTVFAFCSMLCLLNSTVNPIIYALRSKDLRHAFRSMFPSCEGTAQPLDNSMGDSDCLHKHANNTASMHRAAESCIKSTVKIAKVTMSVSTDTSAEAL

SMILES | binding affinity at CB1 receptors (in words)
O=C(NN1CCCCC1)c1nnn(-c2ccc(Cl)cc2)c1-c1ccc(Cl)cc1 [Compound 9] | low affinity
Clc1ccc(-c2cnnn2-c2ccc(Cl)cc2)cc1 [Compound 7a] | low affinity
O=C(OCc1ccccc1)c1nnn(-c2ccc(Cl)cc2Cl)c1-c1ccc(Cl)cc1 [Compound 15] | somewhat diminished
Clc1ccc(-c2cnnn2-c2ccc(Cl)cc2Cl)cc1 [Compound 7b] | low affinity
